# Data from ChEMBL document CHEMBL3885881, “DrugMatrix”.
# Organism: Rattus norvegicus
# Test: DrugMatrix - Regimen: Daily Repeat
# Format: toxicity, organism-based, Sprague-Dawley
# Design: regimen Daily Repeat, gender Male, age 6-8 weeks
# Conditions: in vivo, po, route oral GAVAGE, […]; for ABSOLUTE BASOPHIL / ABSOLUTE EOSINOPHIL / ABSOLUTE LYMPHOCYTE / ABSOLUTE MONOCYTE / ABSOLUTE SEGMENTED NEUTROPHIL / BASOPHIL / EOSINOPHIL / ERYTHROCYTE COUNT / HEMATOCRIT / HEMOGLOBIN / LEUKOCYTE COUNT / LYMPHOCYTE / MEAN CORPUSCULAR HEMOGLOBIN / MEAN CORPUSCULAR HEMOGLOBIN CONCENTRATION / MEAN CORPUSCULAR VOLUME / MONOCYTE / NEUTROPHIL / NUCLEATED RED BLOOD CELLS / PLATELET COUNT: tissue Blood; for ALANINE AMINOTRANSFERASE / ALBUMIN / ALKALINE PHOSPHATASE / ASPARTATE AMINOTRANSFERASE / BLOOD UREA NITROGEN / CARBON DIOXIDE / CHLORIDE / CHOLESTEROL / CREATINE PHOSPHOKINASE / CREATININE / GLUCOSE / LACTATE DEHYDROGENASE / LIPASE / PHOSPHORUS / POTASSIUM / SODIUM / TOTAL BILIRUBIN / TOTAL PROTEIN / URIC ACID: tissue Plasma
# [1] = 25 mg/kg, 72 h, dose level Low, time 3 day
# [2] = 25 mg/kg, 120 h, dose level Low, time 5 day
# [3] = 250 mg/kg, 72 h, dose level High, time 3 day
# [4] = 250 mg/kg, 120 h, dose level High, time 5 day
structure (smiles),measurement,setting,value
CC(C)C(Br)C(=O)NC(N)=O (configuration not stated) [BROMISOVALUM],ABSOLUTE BASOPHIL,[1],0 CELLS/uL
same,ABSOLUTE EOSINOPHIL,[1],72.33 CELLS/uL
same,ABSOLUTE LYMPHOCYTE,[1],9251.33 CELLS/uL
same,ABSOLUTE MONOCYTE,[1],35.67 CELLS/uL
same,ABSOLUTE SEGMENTED NEUTROPHIL,[1],740.67 CELLS/uL
same,BASOPHIL,[1],0%
same,EOSINOPHIL,[1],0.67%
same,ERYTHROCYTE COUNT,[1],5.09 x10E6/uL
same,HEMATOCRIT,[1],32.1%
same,HEMOGLOBIN,[1],12.97 G/DL
same,LEUKOCYTE COUNT,[1],10.1 x10E3/uL
same,LYMPHOCYTE,[1],91.67%
same,MEAN CORPUSCULAR HEMOGLOBIN,[1],25.47 pg
same,MEAN CORPUSCULAR HEMOGLOBIN CONCENTRATION,[1],40.4 G/DL
same,MEAN CORPUSCULAR VOLUME,[1],63.03 fL
same,MONOCYTE,[1],0.33%
same,NEUTROPHIL,[1],7.33%
same,NUCLEATED RED BLOOD CELLS,[1],0 /100WBC
same,PLATELET COUNT,[1],1168.33 x10E3/uL
same,ALANINE AMINOTRANSFERASE,[1],71.33 u/L
same,ALBUMIN,[1],4.37 G/DL
same,ALKALINE PHOSPHATASE,[1],465.67 u/L
same,ASPARTATE AMINOTRANSFERASE,[1],81.33 u/L
same,BLOOD UREA NITROGEN,[1],12.67 mg/dL
same,CARBON DIOXIDE,[1],33.33 mmol/L
same,CHLORIDE,[1],101 MEQ/L
same,CHOLESTEROL,[1],83 mg/dL
same,CREATINE PHOSPHOKINASE,[1],114.33 u/L
same,CREATININE,[1],0.13 mg/dL
same,GLUCOSE,[1],140.33 mg/dL
same,LACTATE DEHYDROGENASE,[1],109.33 u/L
same,LIPASE,[1],12.67 u/L
same,PHOSPHORUS,[1],10.3 mg/dL
same,POTASSIUM,[1],5.88 MEQ/L
same,SODIUM,[1],149.4 MEQ/L
same,TOTAL BILIRUBIN,[1],0.23 mg/dL
same,TOTAL PROTEIN,[1],5.6 G/DL
same,URIC ACID,[1],0.63 mg/dL
same,ABSOLUTE BASOPHIL,[2],0 CELLS/uL
same,ABSOLUTE EOSINOPHIL,[2],0 CELLS/uL
same,ABSOLUTE LYMPHOCYTE,[2],11869 CELLS/uL
same,ABSOLUTE MONOCYTE,[2],46.67 CELLS/uL
same,ABSOLUTE SEGMENTED NEUTROPHIL,[2],851 CELLS/uL
same,BASOPHIL,[2],0%
same,EOSINOPHIL,[2],0%
same,ERYTHROCYTE COUNT,[2],5.78 x10E6/uL
same,HEMATOCRIT,[2],35.77%
same,HEMOGLOBIN,[2],14.1 G/DL
same,LEUKOCYTE COUNT,[2],12.77 x10E3/uL
same,LYMPHOCYTE,[2],93%
same,MEAN CORPUSCULAR HEMOGLOBIN,[2],24.37 pg
same,MEAN CORPUSCULAR HEMOGLOBIN CONCENTRATION,[2],39.43 G/DL
same,MEAN CORPUSCULAR VOLUME,[2],61.83 fL
same,MONOCYTE,[2],0.33%
same,NEUTROPHIL,[2],6.67%
same,NUCLEATED RED BLOOD CELLS,[2],0 /100WBC
same,PLATELET COUNT,[2],1234 x10E3/uL
same,ALANINE AMINOTRANSFERASE,[2],59.67 u/L
same,ALBUMIN,[2],4.33 G/DL
same,ALKALINE PHOSPHATASE,[2],401 u/L
same,ASPARTATE AMINOTRANSFERASE,[2],86.33 u/L
same,BLOOD UREA NITROGEN,[2],12.67 mg/dL
same,CARBON DIOXIDE,[2],27 mmol/L
same,CHLORIDE,[2],103 MEQ/L
same,CHOLESTEROL,[2],65 mg/dL
same,CREATINE PHOSPHOKINASE,[2],275 u/L
same,CREATININE,[2],0.14 mg/dL
same,GLUCOSE,[2],162.67 mg/dL
same,LACTATE DEHYDROGENASE,[2],114.33 u/L
same,LIPASE,[2],9.67 u/L
same,PHOSPHORUS,[2],12.73 mg/dL
same,POTASSIUM,[2],6.6 MEQ/L
same,SODIUM,[2],147.97 MEQ/L
same,TOTAL BILIRUBIN,[2],0.2 mg/dL
same,TOTAL PROTEIN,[2],6.17 G/DL
same,URIC ACID,[2],1.7 mg/dL
same,ABSOLUTE BASOPHIL,[3],0 CELLS/uL
same,ABSOLUTE EOSINOPHIL,[3],0 CELLS/uL
same,ABSOLUTE LYMPHOCYTE,[3],11820.33 CELLS/uL
same,ABSOLUTE MONOCYTE,[3],38.33 CELLS/uL
same,ABSOLUTE SEGMENTED NEUTROPHIL,[3],1174.67 CELLS/uL
same,BASOPHIL,[3],0%
same,EOSINOPHIL,[3],0%
same,ERYTHROCYTE COUNT,[3],5.57 x10E6/uL
same,HEMATOCRIT,[3],35.87%
same,HEMOGLOBIN,[3],14.33 G/DL
same,LEUKOCYTE COUNT,[3],13.03 x10E3/uL
same,LYMPHOCYTE,[3],91%
same,MEAN CORPUSCULAR HEMOGLOBIN,[3],25.8 pg
same,MEAN CORPUSCULAR HEMOGLOBIN CONCENTRATION,[3],39.97 G/DL
same,MEAN CORPUSCULAR VOLUME,[3],64.47 fL
same,MONOCYTE,[3],0.33%
same,NEUTROPHIL,[3],8.67%
same,NUCLEATED RED BLOOD CELLS,[3],0 /100WBC
same,PLATELET COUNT,[3],1177.33 x10E3/uL
same,ALANINE AMINOTRANSFERASE,[3],70 u/L
same,ALBUMIN,[3],4.17 G/DL
same,ALKALINE PHOSPHATASE,[3],407.67 u/L
same,ASPARTATE AMINOTRANSFERASE,[3],90.33 u/L
same,BLOOD UREA NITROGEN,[3],15 mg/dL
same,CARBON DIOXIDE,[3],27.33 mmol/L
same,CHLORIDE,[3],103 MEQ/L
same,CHOLESTEROL,[3],62.67 mg/dL
same,CREATINE PHOSPHOKINASE,[3],210.67 u/L
same,CREATININE,[3],0.26 mg/dL
same,GLUCOSE,[3],148 mg/dL
same,LACTATE DEHYDROGENASE,[3],109.33 u/L
same,LIPASE,[3],10.33 u/L
same,PHOSPHORUS,[3],11.9 mg/dL
same,POTASSIUM,[3],6.86 MEQ/L
same,SODIUM,[3],144.53 MEQ/L
same,TOTAL BILIRUBIN,[3],0.2 mg/dL
same,TOTAL PROTEIN,[3],5.67 G/DL
same,URIC ACID,[3],1.67 mg/dL
same,ABSOLUTE BASOPHIL,[4],0 CELLS/uL
same,ABSOLUTE EOSINOPHIL,[4],46.33 CELLS/uL
same,ABSOLUTE LYMPHOCYTE,[4],14344.33 CELLS/uL
same,ABSOLUTE MONOCYTE,[4],108 CELLS/uL
same,ABSOLUTE SEGMENTED NEUTROPHIL,[4],1434.67 CELLS/uL
same,BASOPHIL,[4],0%
same,EOSINOPHIL,[4],0.33%
same,ERYTHROCYTE COUNT,[4],6.03 x10E6/uL
same,HEMATOCRIT,[4],36.47%
same,HEMOGLOBIN,[4],14.63 G/DL
same,LEUKOCYTE COUNT,[4],15.93 x10E3/uL
same,LYMPHOCYTE,[4],89.67%
same,MEAN CORPUSCULAR HEMOGLOBIN,[4],24.23 pg
same,MEAN CORPUSCULAR HEMOGLOBIN CONCENTRATION,[4],40.13 G/DL
same,MEAN CORPUSCULAR VOLUME,[4],60.47 fL
same,MONOCYTE,[4],0.67%
same,NEUTROPHIL,[4],9.33%
same,NUCLEATED RED BLOOD CELLS,[4],0 /100WBC
same,PLATELET COUNT,[4],1192.33 x10E3/uL
same,ALANINE AMINOTRANSFERASE,[4],64.67 u/L
same,ALBUMIN,[4],4.43 G/DL
same,ALKALINE PHOSPHATASE,[4],429.33 u/L
same,ASPARTATE AMINOTRANSFERASE,[4],83.67 u/L
same,BLOOD UREA NITROGEN,[4],13.33 mg/dL
same,CARBON DIOXIDE,[4],25.67 mmol/L
same,CHLORIDE,[4],104 MEQ/L
same,CHOLESTEROL,[4],55 mg/dL
same,CREATINE PHOSPHOKINASE,[4],157.67 u/L
same,CREATININE,[4],0.2 mg/dL
same,GLUCOSE,[4],140.67 mg/dL
same,LACTATE DEHYDROGENASE,[4],110.67 u/L
same,LIPASE,[4],9.67 u/L
same,PHOSPHORUS,[4],9.97 mg/dL
same,POTASSIUM,[4],6.56 MEQ/L
same,SODIUM,[4],144.1 MEQ/L
same,TOTAL BILIRUBIN,[4],0.2 mg/dL
same,TOTAL PROTEIN,[4],6.27 G/DL
same,URIC ACID,[4],1.53 mg/dL
